Radiolabel recovery and Drug uptake data for one compound are collected here from ChEMBL document CHEMBL3526002, “Tissue distribution and identification of radioactivity components at elimination phase after oral administration of [¹⁴C]CS-1036, an α-amylase inhibitor, to rats” (Drug Metab Dispos, 2013).

What all share (settings): in vivo
The test system of one data set is Kidney. The experiment in a line: Drug uptake in albino F344/DuCrlCrlj rat kidney assessed as ng equivalent of CS-1036 at 5 mg/kg, po after 336 hrs by liquid scintillation counting. The data set is classed as ADME, organism-based. The arrangement: dose 5 mg/kg, dosed compound name [14C]CS-1036, route oral.
Another data set has as its system Aorta. Put plainly: Drug uptake in albino F344/DuCrlCrlj rat aorta assessed as ng equivalent of CS-1036 at 5 mg/kg, po after 336 hrs by liquid scintillation counting. On the set-up: dose 5 mg/kg, dosed compound name [14C]CS-1036, route oral. It is filed as ADME, organism-based.
In the next data set the test system is Pancreas. The experiment in a line: Drug uptake in albino F344/DuCrlCrlj rat pancreas assessed as ng equivalent of CS-1036 at 5 mg/kg, po after 4 hrs by liquid scintillation counting. On the set-up: dose 5 mg/kg, dosed compound name [14C]CS-1036, route oral. It is filed as ADME, organism-based.
Data set [1] in a line: Drug uptake in albino F344/DuCrlCrlj rat bone marrow assessed as ng equivalent of CS-1036 at 5 mg/kg, po after 4 hrs by liquid scintillation counting. The arrangement: dose 5 mg/kg, dosed compound name [14C]CS-1036, route oral. The data set is classed as ADME, organism-based.
Another data set relates to Small intestine. The experiment in a line: Drug uptake in albino F344/DuCrlCrlj rat small intestine at 5 mg/kg, po after 24 hrs by liquid scintillation counting. It is filed as ADME, organism-based. On the set-up: dose 5 mg/kg, dosed compound name [14C]CS-1036, route oral.
Another data set concerns Adrenal gland. Put plainly: Drug uptake in albino F344/DuCrlCrlj rat adrenal gland at 5 mg/kg, po after 72 hrs by liquid scintillation counting. The data set is classed as ADME, organism-based. The arrangement: dose 5 mg/kg, dosed compound name [14C]CS-1036, route oral.
The nature of data set [2]: Drug uptake in albino F344/DuCrlCrlj rat mandibular gland assessed as ng equivalent of CS-1036 at 5 mg/kg, po after 4 hrs by liquid scintillation counting. The data set is classed as ADME, organism-based. The arrangement: dose 5 mg/kg, dosed compound name [14C]CS-1036, route oral.
A short description of data set [3]: Drug uptake in albino F344/DuCrlCrlj rat skeletal muscle assessed as ng equivalent of CS-1036 at 5 mg/kg, po after 168 hrs by liquid scintillation counting. The data set is classed as ADME, organism-based, Muscle tissue. The arrangement: dose 5 mg/kg, dosed compound name [14C]CS-1036, route oral.
In the next data set the test system is Plasma. Put plainly: Drug uptake in albino F344/DuCrlCrlj rat plasma at 10 mg/kg, po after 8 to 72 hrs by liquid scintillation counting. It is filed as ADME, organism-based. The arrangement: dose 10 mg/kg, dosed compound name [14C]CS-1036, route oral.

For the compound `C[C@H]1O[C@@H](O[C@H]2[C@H](O)[C@@H](O)[C@@H](O[14C@H]3[14C@H](O)[14CH2]N[14C@@H]3[14CH2]O)O[C@@H]2CO)[C@H](O)[C@@H](O)[C@@H]1O`, the Radiolabel recovery in the data set on Kidney stood at 4.9 ngequiv/g; in the data set on Aorta it was 10.8 ngequiv/g; with Pancreas, 52 ngequiv/g; in data set [1], 7.9 ngequiv/g; in the data set on Small intestine it was 94.4 ngequiv/g; in the data set on Adrenal gland it was 99.7 ngequiv/g. The Radiolabel recovery in [2] was determined as 9.2 ngequiv/g; in data set [3], 4.5 ngequiv/g. For the same compound, the Drug uptake result in the data set with Plasma is reported as “Active”.
